{
  "source": "patent US20050226913A1",
  "about": "“Article for inhibiting microbial growth in physiological fluids” (Eastman Kodak Company, priority 2004, published 2005)",
  "test": "Stability constant (log βn) of ligand with Fe(III)",
  "conditions": "Fe(III) (target) minus Ca (interfering), from Table 1",
  "description": "Herein the stability constant for the reaction of a metal-ion (M) and a sequestrant or ligand (L) is defined as follows: M+nL⇄MLn\nwhere the stability constant is βn=[MLn]/[M][L]^n, wherein [MLn] is the concentration of “complexed” metal-ion, [M] is the concentration of free (uncomplexed) metal-ion and [L] is the concentration of free ligand. The log of the stability constant is log βn, and n is the number of ligands, which coordinate with the metal.",
  "data": [
    {"smiles": "O=C(O)CN(CCN(CC(=O)O)CC(=O)O)CCN(CC(=O)O)CC(=O)O", "note": "[DTPA, diethylenetriaminepentaacetic acid]", "values": [
      {"measurement": "selectivity: difference between the log stability constants", "value": 17.2}
    ]}
  ]
}
